This note sets out measurements from ChEMBL document CHEMBL1158978, “Antimicrobial N-methylpyridinium salts related to the xestamines from the Caribbean sponge Calyx podatypa” (1991).

Where a name gives a salt, the structure may show the parent alone.

Format in all cases: functional
Holding throughout (details): read-out: IZ

The test system of one experiment is Bacillus subtilis. Description: Antimicrobial activity against Bacillus subtilis at 5 ug/ml by standard disk assay.
A further experiment deals with Staphylococcus aureus. Description: Antimicrobial activity against Staphylococcus aureus at 5 ug/ml by standard disk assay.
A further experiment deals with Candida albicans. Nature of the experiment: Antimicrobial activity against Candida albicans at 10 ug/ml by standard disk assay.

Consider `CON(C)CCCCCCCCCC/C=C\C#CCCCCc1ccc[n+](C)c1` [XESTAMINE F IODIDE SALT], for which the figures for the zone of inhibition at 5 µg/mL with Bacillus subtilis and in the experiment on Staphylococcus aureus were 8 mm and 9 mm, respectively. Also, in the experiment on Candida albicans, the zone of inhibition at 10 µg/mL is 10 mm.
